One data set deals with VRSA (SJC1200). Description: MIC, VRSA. It is filed as cell-based, vancomycin-resistant Staphylococcus aureus. Conditions: VRSA (SJC1200).
Data set [1] relates to Salmonella Typhimurium ATCC 14028. Description: MIC, Salmonella Typhimurium. It is filed as cell-based. Conditions: Salmonella enterica.
The subject of data set [2] is Escherichia coli ATCC 25922. The experiment in a line: MIC, Escherichia coli. It is filed as cell-based. Conditions: ATCC25922.
Data set [3] relates to S. intermedius (ATCC 29663). Description: MIC, S. intermedius. The data set is classed as cell-based.
The subject of data set [4] is Acinetobacter baumannii BCRC 80276. Description: MIC, Acinetobacter baumannii. The data set is classed as cell-based. Conditions: BCRC80276.
For data set [5], the system named is S. aureus NCTC 8325. Description: Intracellular ATP leakage (ATPlite one-step). It is filed as cell-based, Staphylococcus aureus. Conditions: 4×MIC for 15 min. How it is done:
FIG. 6. Intracellular ATP leakage of S. aureus treated with SC5005, SC5035 and antibiotics. […] Data was presented as percentage of intracellular ATP level to that of untreated bacteria cells (considered as 100%). Bars represent the mean, and error bars represent the SD (n=3). ***: p-value <0.001
To investigate whether SC5005 and SC5035 also act on bacterial cell membrane, intracellular ATP levels of S. aureus treated with SC5005, SC5035 and antibiotics for 15 min was determined by using ATPlite one-step assay kit.

Data set [6] concerns S. aureus NCTC 8325. The experiment in a line: Membrane integrity (SYTO 9 / propidium iodide staining). The data set is classed as cell-based, Staphylococcus aureus. Conditions: 4×MIC (Triton X-100: 10%) for 15 minutes. From the text:
FIG. 7. Membrane integrity of S. aureus after SC5005, SC5035 and five common antibiotics treatment. […] SYTO 9, a green fluorescence dye, stains chromosome of all bacteria cells, regardless of the membrane integrity. In contrast, propidium iodide (PI), a red fluorescence dye, only stains cell with damaged membrane. Thus, bacteria cell with intact membrane can only be stained by SYTO 9, and cell with perforated membrane will be stained by both fluorescence dyes, showing a yellow color in merged images.
To further validate the action mechanism of SC5005 and SC5035, two fluorescence dyes were used for evaluation of membrane integrity of drug treated S. aureus. The propidium iodide dye only stains cells with perforated membrane, while the SYTO 9 stains all cells in spite of membrane integrity.

For data set [7], the system named is MRSA (ATCC 43300). Description: MIC, MRSA ATCC 43300. The data set is classed as cell-based, methicillin-resistant Staphylococcus aureus. Conditions: MRSA (ATCC 43300).
The next data set relates to MSSA ATCC 29213. Description: MIC, MSSA ATCC 29213. The data set is classed as cell-based, Staphylococcus aureus. As to conditions: Table 6.
The test system of another data set is human red blood cells. Description: Hemolytic activity. The data set is classed as cell-based. How it is done: FIG. 9. Hemolytic activities of SC5005 and SC5035 on human red blood cell. Human red blood cells were incubated with SC5005 (A) and SC5035 (B) for 1 h followed by measuring the absorption of RBC released hemoglobin at 540 nm with microplate reader. Cell treated with 1% triton X-100 serves as positive control (P.C.; 100% hemolysis), and those treated with normal saline serves as negative control (N.C.) Bars represent the mean, and error bars represent the SD (n=3).
As data shown above, SC5005 and SC5035 can kill bacteria via forming pore in bacterial membrane. To see whether the pore-forming activity of these two compounds is specific for bacterial membrane, the hemolytic activities of these two agents on human red blood cells were accessed.

In data set [8] the test system is MRSA (ATCC 43300). Description: Minimal biofilm eradication concentration, MRSA in the biofilm. The data set is classed as cell-based, methicillin-resistant Staphylococcus aureus. Conditions: MRSA (ATCC 43300) in the biofilm. As to the method: A biofilm is composed of attached microorganisms enclosed in an extracellular polymeric substance matrix. Bacteria embedded in the biofilm are protected from antibiotic-mediated killing and the immune response. Reports have shown that biofilm formation is an important factor contributing to S. aureus infections of the skin, lung and indwelling medical devices such as catheters. Thus, the effect of SC5005 on MRSA in a biofilm was assayed.

The subject of a further data set is MRSA (ATCC 33592). The experiment in a line: Survival of MRSA-infected C57BL/6 mice, intraperitoneal administration. Conditions: surviving mice, 10 mg/kg.
For data set [9], the system named is S. aureus NCTC 8325. Description: Biosynthesis of macromolecules (3H precursor incorporation). The data set is classed as cell-based, Staphylococcus aureus. Conditions: 4×MIC for 1 h. As to the method:
FIG. 5. Effect of SC5005 and SC5035 on the biosynthesis of macromolecules in S. aureus. […] Meanwhile, ofloxacin (1 mg/L), rifampicin (1 mg/L), erythromycin (2 mg/L), and vancomycin (2 mg/L) were used as control inhibitors for the biosynthesis of DNA, RNA, protein and cell wall, respectively. Data are means of three independent experiments. Error bars represent the SD.
To investigate the mode of action of SC5005, a new derivative, SC5035, with better selectivity of antibacterial activity over cytotoxicity was included in the assays. First, the impacts of these two compounds on the biosynthesis of important macromolecules, including DNA, RNA, protein and cell wall, in S. aureus NCTC 8325 were assessed. Bacteria cells were incubated with [^3H]thymidine to assess DNA synthesis, [^3H] uridine to assess RNA synthesis, [^3H] leucine to assess protein synthesis, and [^3H] N-Acetyl-D-glucosamine to assess cell wall synthesis. The ofloxacin, rifampicin, erythromycin and vancomycin were used as control inhibitor for DNA, RNA, protein, and cell wall biosynthesis, respectively. Inhibition of biosynthesis pathway was determined by a reduction in the radial isotope signal of bacteria.

Data set [10] concerns S. aureus NCTC 8325. The experiment in a line: Transmission electron microscopy of cell membrane. The data set is classed as cell-based, Staphylococcus aureus. Conditions: 15 min treatment, 100,000 magnifications. How it is done:
FIG. 8. Transmission electron microscopy image of S. aureus after SC5005 treatment. S. aureus NCTC 8325 was treated with (A) mock or (B) SC5005 for 15 min followed by glutaraldehyde (2.5%) fixation and osimium tetraoxide (1%) staining. The membrane integrity was then observed with transmission electron microscopy at 100,000× magnification. The outer black ring marked with CW represents cell wall, and the inner black ring marked with CM represents cell membrane. The arrow points the pore formed in S. aureus cell membrane.
To investigate how SC5005 changes membrane permeability of S. aureus, bacteria cells were treated with SC5005 for 15 min followed by glutaraldehyde (2.5%) fixation and osimium tetraoxide (1%) staining. The membrane of bacteria was then observed by Transmission electron microscopy (TEM) at 100,000 magnifications (FIG. 8). The outer clear black circle is cell wall of S. aureus, and the inner clear black circle is cell membrane of S. aureus. These two circles of control treated S. aureus remain intact, and the cell membrane is undamaged.

Converted amounts (≈) assume the structure as drawn. Like-named read-outs stand apart in the source and are kept apart here.

Experimental for MRSA (ATCC 33592): (A) Effect of intraperitoneal administration of SC5005 on the survival of MRSA-infected mice. Female C57BL/6 mice were inoculated intraperitoneally with 5×10^4 CFU of MRSA (ATCC 33592). Infected mice received intraperitoneal injection of 1 mg/kg (filled inverted triangles), 3 mg/kg (filled triangles) and 10 mg/kg (filled squares) SC5005 or vehicle (mock) (filled circles) once per day for three consecutive days. Survival rates, as represented by Kaplan-Meier curves, are shown for the mock and SC5005 treatment groups. *P<0.05, for the difference between treated groups and the control group. (B) Body weight changes in individual vehicle or SC5005-treated MRSA-infected mice. Each line represents an individual mouse. The black lines indicate mice that survived until the end of the study and the grey lines indicate mice that were euthanized during the study.
To further evaluate the therapeutic potential of SC5005 against MRSA infection, inbred C57BL/6 mice were intraperitoneally injected with a lethal dose (5×10^4 CFU) of MRSA (ATCC 33592), followed by intraperitoneal administration of vehicle control or SC5005 (1 mg/kg, 3 mg/kg or 10 mg/kg) at 1 h, 24 h and 48 h post-infection (N=5 for each group).

As a reminder, the MIC is the lowest concentration that inhibits growth of the organism. `O=C(Nc1ccc(Cl)c(C(F)(F)F)c1)Nc1ccc(Cl)c(C(F)(F)F)c1` [SC78]: the MIC with VRSA (SJC1200) (Staphylococcus aureus, read-out: MIC) was 0.25 µg/mL (≈ 0.599 µM); in data set [1], over 64 µg/mL; in [2], over 64 µg/mL; in [3] (read-out: MIC), 1 µg/mL (≈ 2.4 µM); in data set [4], over 64 µg/mL.

With `O=C(Nc1ccc(Cl)c(C(F)(F)F)c1)C(CCCl)C(=O)Nc1ccc(Cl)c(C(F)(F)F)c1` [SC5005], the “intracellular ATP levels” value with S. aureus NCTC 8325 [5] was “significantly dropped”. Also, the MIC against VRSA (SJC1200) was determined as 0.5 µg/mL (≈ 0.958 µM); against MRSA (ATCC 43300) [7] it was 0.5 µg/mL (≈ 0.958 µM); against MSSA ATCC 29213, 0.5 µg/mL (≈ 0.958 µM); in data set [3], 1 µg/mL (≈ 1.92 µM). In addition, the “propidium iodide staining (membrane integrity)” value in the data set on S. aureus NCTC 8325 [6] is given as “can be stained by propidium iodide”. For the same compound, the “hemolysis of RBC” value in the data set on human red blood cells was “no significant hemolysis”. The compound further returned an MBEC in the data set on MRSA (ATCC 43300) [8] of 16 mg/L. Moreover, the “time for body weight to return to pre-infection levels” value in the data set on MRSA (ATCC 33592) lay within 2 to 5 days. Further, in the data set with S. aureus NCTC 8325 [9], the “incorporation signal in DNA, RNA, protein and cell wall biosynthesis” value is “lower signal in all four macromolecule biosynthesis pathway”. Also, the “pore formation in cell membrane (TEM)” value with S. aureus NCTC 8325 [10] was “a pore was observed in the membrane of most bacteria cells”.
